Measured values reported in patent US8598413B2, “AAD-1 event DAS-40278-9, related transgenic corn lines, event-specific identification thereof, and methods of weed control involving AAD-1” (Dow AgroSciecnes, LLC., priority 2009, dated 2013).

Tests used:
[1] = test system: conventional control hybrid; experiment: Field tolerance to preemergence applications of 2,4-D (Example 13, Table 31); type: in vivo, corn; conditions: PRE (0-2 days after planting), evaluated 16-21 days after application
Procedure: (§1) Transgenic hybrid corn (pDAS1740-278) containing the aad-1 gene which encodes the aryloxyalkanoate dioxygenase (AAD-1) protein was evaluated for tolerance to preemergence applications of 2,4-D in the field. Trials were conducted at multiple locations in Mississippi, Indiana, and Minnesota using a randomized complete block design with three replications of two row plots, approximately 6 m in length, at each site. Herbicide-treated plots were paired with untreated plots to provide accurate evaluation of emergence and early season growth. Herbicide treatments of 1120, 2240, and 4480 g ae/ha of 2,4-D amine were applied shortly after planting but before crop emergence (0-2 days after planting). Soil and precipitation information for these trials is contained in Table 30.

[2] = test system: transgenic cotton containing the aad-1 gene; experiment: Field tolerance of aad-1 cotton to preemergence applications of 2,4-D (Example 13); type: in vivo
Procedure: Transgenic cotton containing the aad-1 gene which encodes the aryloxyalkanoate dioxygenase (AAD-1) protein was evaluated for tolerance to preemergence applications of 2,4-D in the field. Trials consisted of three replications and were conducted at multiple locations in Mississippi, Georgia, Tennessee, and Arkansas. A randomized complete block design of a single row separated by a guard row, approximately 10 feet (20 feet for the Mississippi trial) in length was used. Seed was planted using 8 seed per foot, plants were then hand thinned to 3.5 plants/foot of row. Herbicide-treated plots were paired with untreated plots to provide accurate evaluation of emergence and early season growth. All plots received at least ½ inch of rain or irrigation water within 24 hours of application. Herbicide treatments of 560, 1120, 2240, and 4480 g ae/ha of 2,4-D amine (WEEDAR 64, Nufarm, Burr Ridge, Ill.) were applied shortly after planting but before crop emergence. Soil and precipitation information for these trials is contained in Table 32.

[3] = test system: hybrid corn containing the aad-1 gene; experiment: 2,4-D amine applied 7, 15 or 30 days preplanting, corn (Example 13); type: in vivo; conditions: 1120, 2240, 4480 g ae/ha at 7, 15 or 30 days preplanting
From the text: Preemergence applications of 2,4-D amine are applied at rates of 1120, 2240, 4480 g ae/ha at 7 days, 15 days, or 30 days preplanting to hybrid corn containing the aad-1 gene and conventional control hybrids. The preemergence applications are applied using art recognized procedures to field plots which are located at geographically distinct locales. Herbicide-treated plots are paired with untreated plots to provide accurate evaluation of emergence and early season growth. Approximately 16-21 days after planting and 2,4-D applications at 7, 15 or 30 days preplanting; injury of the conventional control hybrids and hybrid corn containing aad-1 are measured.

[4] = test system: hybrid corn containing pDAS1740-278; experiment: Field tolerance to preemergence applications of 2,4-D (Example 13, Table 31); type: in vivo; conditions: PRE (0-2 days after planting), evaluated 16-21 days after application, pDAS1740-278 Hybrid
Procedure: as §1

[5] = preemergence 560, 1120, 2240 and 4480 gm ae/ha

O=C(O)COc1ccc(Cl)cc1Cl [2,4-D, 2,4-dichlorophenoxyacetic acid]
Percent Plant Injury ([1]; 1120 g ae/ha): 12% | Percent Plant Injury ([1]; 2240 g ae/ha): 16% | Percent Plant Injury ([1]; 4480 g ae/ha): 31% | Chlorosis ([2]; 560, 1120, 2240 and 4480 gm ae/ha, remainder of the season): not detected | Injury ([2]; 560 and 1120 gm ae/ha): not significantly different from the untreated control plot | growth inhibition ([2]; 560 and 1120 gm ae/ha, 7 to 8, 11 to 14, 27 to 30 and 52 to 57 days after application): less than 2% | Chlorosis ([2]; 560 and 1120 gm ae/ha, 7 to 8 days after application): not detected | stand reduction ([2]; 560 gm ae/ha, 7 to 8 days after planting and preemergence application): 3% | stand reduction ([2]; 560 gm ae/ha, 11 to 14 days after planting and application): 5% | stand reduction ([2]; 1120 gm ae/ha, 7 to 8 days after planting and preemergence application): no reduction | stand reduction ([2]; 1120 gm ae/ha, 11 to 14 days after planting and application): 2% | Chlorosis, visual rating ([2]; 2240 and 4480 gm ae/ha, 7-8 days after application): < 5% | growth inhibition ([2]; 2240 gm ae/ha): < 10% | stand reduction ([2]; 2240 gm ae/ha, 7 to 8 days after planting and preemergence application): 19% | stand reduction ([2]; 2240 gm ae/ha, 11 to 14 days after planting and application): 14% | growth inhibition ([2]; 4480 gm ae/ha, 7 to 8 days after application): 27% | stand reduction ([2]; 4480 gm ae/ha, 7 to 8 days after planting and preemergence application): 34% | growth inhibition ([2]; 4480 gm ae/ha, 11 to 14 days after application): 28% | stand reduction ([2]; 4480 gm ae/ha, 11 to 14 days after planting and application): 25% | growth inhibition ([2]; 4480 gm ae/ha, 27 to 30 days after application): 17% | growth inhibition ([2]; 4480 gm ae/ha, 52 to 57 days after application): 8.3% | Differences in plant height, fruiting pattern, and yield [2, 5]: not detected | epinasty [2, 5]: did not cause epinasty | effect on plant stands ([2]; preemergence 560, 1120 and 2240 gm ae/ha, compared to untreated plot): did not significantly affect plant stands | tolerance of preemergence treatments [3]: robust tolerance | Percent Plant Injury ([4]; 1120 g ae/ha): 3% | Percent Plant Injury ([4]; 2240 g ae/ha): 4% | Percent Plant Injury ([4]; 4480 g ae/ha): 9%
